Assay results published in patent US4528287A, “6-Fluoro-1, 4-dihydro-4-oxo-7-substituted piperazinylquinoline-3-carboxylic acids and the method for preparing the same” (priority 1983, dated 1985).
Values after ≈ are worked out from the molar mass of the structure shown.

Experiments:
[1] = system: Bacillus subtilis ATCC6633; assay: MIC, twofold agar dilution; format: cell-based; conditions: Gram +, 10^6 cells/ml, 18 hrs, 37° C., read-out: Minimum inhibitory concentration (MIC)
Protocol: (§1) Minimum inhibitory concentrations (MIC) were determined by the twofold agar dilution method (Chemotherapy, 29(1), 76(1981)). Overnight cultures in Mueller-Hinton broth were suspended by buffered saline gelatine. One loopful of the bacterial suspension (10^6 or 10^8 colony-forming units/ml) was incubated onto the test compound-containing plates. The plates were incubated for 18 hrs. at 37° C. The MIC was the lowest concentration of the drug that inhibited visible growth.

[2] = system: Enterobacter aerogenes ATCC13048; assay: MIC, twofold agar dilution; format: cell-based; conditions: Klebsiella aerogenes, Gram -, 10^6 cells/ml, 18 hrs, 37° C., read-out: Minimum inhibitory concentration (MIC)
Protocol: as §1

[3] = system: Enterobacter cloaceas 963; assay: MIC, twofold agar dilution; format: cell-based; conditions: Gram -, 10^6 cells/ml, 18 hrs, 37° C., read-out: Minimum inhibitory concentration (MIC)
Protocol: as §1

[4] = system: Escherichia coli K-12 C600; assay: MIC, twofold agar dilution; format: cell-based; conditions: K12C600, Gram -, 10^6 cells/ml, 18 hrs, 37° C., read-out: Minimum inhibitory concentration (MIC)
Protocol: as §1

[5] = system: Escherichia coli NIHJ-JC-2; assay: MIC, twofold agar dilution; format: cell-based; conditions: NIHJJC2, Gram -, 10^6 cells/ml, 18 hrs, 37° C., read-out: Minimum inhibitory concentration (MIC)
Protocol: as §1

[6] = system: Klebsiella pneumoniae PCI-602; assay: MIC, twofold agar dilution; format: cell-based; conditions: PCI602, Gram -, 10^6 cells/ml, 18 hrs, 37° C., read-out: Minimum inhibitory concentration (MIC)
Protocol: as §1

[7] = system: Micrococcus luteus ATCC9341; assay: MIC, twofold agar dilution; format: cell-based; conditions: Gram +, 10^6 cells/ml, 18 hrs, 37° C., read-out: Minimum inhibitory concentration (MIC)
Protocol: as §1

[8] = system: Proteus mirabilis IFO3849; assay: MIC, twofold agar dilution; format: cell-based; conditions: Gram -, 10^6 cells/ml, 18 hrs, 37° C., read-out: Minimum inhibitory concentration (MIC)
Protocol: as §1

Proteus morganii IFO3848 = assay: MIC, twofold agar dilution; format: cell-based; conditions: Morganella morganii, Gram -, 10^6 cells/ml, 18 hrs, 37° C., read-out: Minimum inhibitory concentration (MIC)
Protocol: as §1

Proteus rettgeri IFO3850 = assay: MIC, twofold agar dilution; format: cell-based; conditions: Providencia rettgeri, Gram -, 10^6 cells/ml, 18 hrs, 37° C., read-out: Minimum inhibitory concentration (MIC)
Protocol: as §1

Proteus vulgalis HX-19 = assay: MIC, twofold agar dilution; format: cell-based; conditions: Gram -; 10^6 cells/ml; 18 hrs, 37° C.; read-out: Minimum inhibitory concentration (MIC)
Protocol: as §1

Proteus vulgalis OX-19 = assay: MIC, twofold agar dilution; format: cell-based; conditions: Gram -; 10^6 cells/ml; 18 hrs, 37° C.; read-out: Minimum inhibitory concentration (MIC)
Protocol: as §1

[9] = system: Pseudomonas aeruginosa ATCC9027; assay: MIC, twofold agar dilution; format: cell-based; conditions: Gram -, 10^6 cells/ml, 18 hrs, 37° C., read-out: Minimum inhibitory concentration (MIC)
Protocol: as §1

[10] = system: Pseudomonas aeruginosa IFO3445; assay: MIC, twofold agar dilution; format: cell-based; conditions: Gram -, 10^6 cells/ml, 18 hrs, 37° C., read-out: Minimum inhibitory concentration (MIC)
Protocol: as §1

[11] = system: Pseudomonas aeruginosa NCTC10490; assay: MIC, twofold agar dilution; format: cell-based; conditions: Gram -, 10^6 cells/ml, 18 hrs, 37° C., read-out: Minimum inhibitory concentration (MIC)
Protocol: as §1

[12] = system: Pseudomonas aeruginosa PAO7; assay: MIC, twofold agar dilution; format: cell-based; conditions: Gram -, 10^6 cells/ml, 18 hrs, 37° C., read-out: Minimum inhibitory concentration (MIC)
Protocol: as §1

[13] = system: Salmonella enteritidis G14; assay: MIC, twofold agar dilution; format: cell-based; conditions: Salmonella enterica, Gram -, 10^6 cells/ml, 18 hrs, 37° C., read-out: Minimum inhibitory concentration (MIC)
Protocol: as §1

[14] = system: Salmonella paratyphi 1015; assay: MIC, twofold agar dilution; format: cell-based; conditions: Salmonella enterica, 18 h, read-out: Minimum inhibitory concentration (MIC)
Protocol: as §1

[15] = system: Salmonella schottmulleri 0006; assay: MIC, twofold agar dilution; format: cell-based; conditions: Gram -, 10^6 cells/ml, 18 hrs, 37° C., read-out: Minimum inhibitory concentration (MIC)
Protocol: as §1

Salmonella typhi 901 = assay: MIC, twofold agar dilution; format: cell-based; conditions: Salmonella enterica, 18 h, read-out: Minimum inhibitory concentration (MIC)
Protocol: as §1

[16] = system: Salmonella typhimurium IID 971; assay: MIC, twofold agar dilution; format: cell-based; conditions: Salmonella enterica; Gram -; 10^6 cells/ml; 18 hrs, 37° C.; read-out: Minimum inhibitory concentration (MIC)
Protocol: as §1

[17] = system: Serratia marcescens IAM1184; assay: MIC, twofold agar dilution; format: cell-based; conditions: Gram -, 10^6 cells/ml, 18 hrs, 37° C., read-out: Minimum inhibitory concentration (MIC)
Protocol: as §1

[18] = system: Staphylococcus aureus FAD208PJC-1; assay: MIC, twofold agar dilution; format: cell-based; conditions: FAD208PJC1, Gram +, 10^6 cells/ml, 18 hrs, 37° C., read-out: Minimum inhibitory concentration (MIC)
Protocol: as §1

[19] = system: Staphylococcus aureus MS-353; assay: MIC, twofold agar dilution; format: cell-based; conditions: MS353, Gram +, 10^6 cells/ml, 18 hrs, 37° C., read-out: Minimum inhibitory concentration (MIC)
Protocol: as §1

[20] = system: Staphylococcus aureus Terajima; assay: MIC, twofold agar dilution; format: cell-based; conditions: Gram +, 10^6 cells/ml, 18 hrs, 37° C., read-out: Minimum inhibitory concentration (MIC)
Protocol: as §1

[21] = system: Streptococcus pyogenes Cook; assay: MIC, twofold agar dilution; format: cell-based; conditions: Gram +, 10^6 cells/ml, 18 hrs, 37° C., read-out: Minimum inhibitory concentration (MIC)
Protocol: as §1

[22] = Urinary excretion in rats after oral dosing (bioassay with Escherichia coli NIHJ-JC-2); format: in vivo, SD strain); conditions: rat, male SD rats, 20 mg/Kg per os, fasted 24 hr
Protocol: Male rats of SD strain, weighing 180-210 g, were used 8 animals at a group. Test compounds suspended in 0.5% carboxymethyl cellulose were administered per os to 24 hr-fasted rats at dose of 20 mg/Kg. Urine was pooled from 0 to 6 hrs. and 6 to 24 hrs, and urinary excretion was measured by bioassay using Escherichia coli NIHJ-JC-2.
The assay method employed was the cup-plate method using
Escherichia coli NIHJ-JC-2. Urine was appropriately diluted with 1/15M phosphate buffer pH7.0, before assay if necessary. Standard calibration lines were made in 1/15M phosphate buffer pH7.0.

| SMILES | MIC [1] | MIC [2] | MIC [3] | MIC [4] | MIC [5] | MIC [6] | MIC [7] | MIC [8] | MIC (Proteus morganii IFO3848) | MIC (Proteus rettgeri IFO3850) | MIC (Proteus vulgalis HX-19) | MIC (Proteus vulgalis OX-19) | MIC [9] | MIC [10] | MIC [11] | MIC [12] | MIC [13] | MIC [14] | MIC [15] | MIC (Salmonella typhi 901) | also measured |
| --- | --- | --- | --- | --- | --- | --- | --- | --- | --- | --- | --- | --- | --- | --- | --- | --- | --- | --- | --- | --- | --- |
| CC1CN(c2c(F)cc3c(=O)c(C(=O)O)cn(CCF)c3c2F)CCN1 (stereo not shown) [Example 16, 6,8-Difluoro-1-(2-fluoroethyl)-1,4-dihydro-7-(3-methyl-1-piperazinyl)-4-oxoquinoline-3-carboxylic acid] | 0.2 µg/mL (≈ 0.542 µM) | 0.2 µg/mL (≈ 0.542 µM) | 0.2 µg/mL (≈ 0.542 µM) | 0.2 µg/mL (≈ 0.542 µM) | 0.1 µg/mL (≈ 0.271 µM) | 0.023 µg/mL (≈ 0.0623 µM) | 6.25 µg/mL (≈ 16.9 µM) | 0.39 µg/mL (≈ 1.06 µM) | 0.05 µg/mL (≈ 0.135 µM) | 0.2 µg/mL (≈ 0.542 µM) | 0.05 µg/mL (≈ 0.135 µM) | 0.2 µg/mL (≈ 0.542 µM) | 0.1 µg/mL (≈ 0.271 µM) | 0.78 µg/mL (≈ 2.11 µM) | 0.38 µg/mL (≈ 1.03 µM) | 1.56 µg/mL (≈ 4.22 µM) | 0.2 µg/mL (≈ 0.542 µM) | 0.05 µg/mL (≈ 0.135 µM) | 0.1 µg/mL (≈ 0.271 µM) | 0.1 µg/mL (≈ 0.271 µM) | MIC [16]: 0.2 µg/mL (≈ 0.542 µM); MIC [17]: 0.2 µg/mL (≈ 0.542 µM); MIC [18]: 0.38 µg/mL (≈ 1.03 µM); MIC [19]: 1.56 µg/mL (≈ 4.22 µM); MIC [20]: 0.78 µg/mL (≈ 2.11 µM); MIC [21]: 3.13 µg/mL (≈ 8.47 µM); concentration at 6 h ([22]; urine 0-6 hr, read-out: Drug Concentration in Urine 0-6 (hr)): 344 µg/mL; dose excreted at 24 h ([22]; urine 0-24 hr, read-out: Rate of Urinary Excretion 0-24 (hr)): 41%; concentration at 24 h ([22]; urine 6-24 hr, read-out: Drug Concentration in Urine 6-24 (hr)): 46 µg/mL |
| CCn1cc(C(=O)O)c(=O)c2cc(F)c(N3CC(C)NC(C)C3)c(F)c21 (stereo not shown) [Example 20] | 0.2 µg/mL (≈ 0.547 µM) | 0.2 µg/mL (≈ 0.547 µM) | 0.2 µg/mL (≈ 0.547 µM) | 0.2 µg/mL (≈ 0.547 µM) | 0.39 µg/mL (≈ 1.07 µM) | 0.2 µg/mL (≈ 0.547 µM) | 12.5 µg/mL (≈ 34.2 µM) | 1.56 µg/mL (≈ 4.27 µM) | 0.2 µg/mL (≈ 0.547 µM) | 0.39 µg/mL (≈ 1.07 µM) | 0.2 µg/mL (≈ 0.547 µM) | 0.1 µg/mL (≈ 0.274 µM) | 0.2 µg/mL (≈ 0.547 µM) | 3.13 µg/mL (≈ 8.57 µM) | 0.78 µg/mL (≈ 2.13 µM) | 3.13 µg/mL (≈ 8.57 µM) | 0.39 µg/mL (≈ 1.07 µM) | 0.1 µg/mL (≈ 0.274 µM) | 0.1 µg/mL (≈ 0.274 µM) | 0.1 µg/mL (≈ 0.274 µM) | MIC [16]: 0.2 µg/mL (≈ 0.547 µM); MIC [17]: 0.78 µg/mL (≈ 2.13 µM); MIC [18]: 0.78 µg/mL (≈ 2.13 µM); MIC [19]: 1.56 µg/mL (≈ 4.27 µM); MIC [20]: 1.56 µg/mL (≈ 4.27 µM); MIC [21]: 6.25 µg/mL (≈ 17.1 µM) |
